Measured values taken from the NIST ThermoML archive (doi:10.1021/je0495942).
Several values for one entry are separate records, joined by “and”; a condition that tells them apart may be missing. Identical values can stand only once. Numbers after ± are expanded uncertainties.

Experiment: activity coefficient (dimensionless); of the first substance listed, at infinite dilution; xn = mol fraction of the nth substance listed
Details: 101.33 kPa, Liquid, Chromatography, x1 = 0

Compound | activity coefficient (298.01 K) | activity coefficient (298.03 K) | activity coefficient (297.85 K) | activity coefficient (298.15 K) | other results
CC(=O)C(C)=O [2,3-butanedione] + O |  |  |  |  | activity coefficient (298.1 K): 13.3 and 13.2; activity coefficient (298.17 K): 13.2 and 13.1
CC(C)=O [acetone] + O | 7.62 and 7.68 | 7.64 and 7.7 |  |  | activity coefficient (298.04 K): 7.68 and 7.74; activity coefficient (298.17 K): 7.7 ± 0.34
CCCCC(C)=O [2-hexanone] + O |  |  | 319 ± 14 | 265 ± 12 | 
CCCC(C)=O [pentan-2-one] + O |  |  | 129 ± 6 | 148 ± 7 | 
CCC(C)=O [butanone] + O |  |  | 25.8 ± 1.1 | 26.1 ± 1.2 | 
CCO [ethanol] + O |  |  |  | 3.77 ± 0.17 | 
CCCO [propan-1-ol] + O | 13.4 ± 0.6 | 13.3 ± 0.6 |  |  | activity coefficient (298.04 K): 13.3 ± 0.6; activity coefficient (298.1 K): 13.4 and 13.3
CSC [2-thiapropane] + O | 175 and 173 and 171 | 170 and 173 |  |  | activity coefficient (298.02 K): 184 and 185; activity coefficient (298.07 K): 178 ± 12
CC=O [ethanal] + O |  |  |  | 4.14 ± 0.19 | activity coefficient (298.13 K): 4.13 [middle of 4 runs]
